Measurements as given in patent US10202389B2, “Pyrazolopyrimidinyl inhibitors of ubiquitin-activating enzyme” (Millennium Pharmaceuticals, Inc., priority 2012, dated 2019).

These compounds were tested against recombinant human UAE (Homo sapiens (Human), UniProt P22314) (assay: Ubiquitin Activating Enzyme (UAE) HTRF Assay). Details: read-out: % inhibition @0.111 μM.
Chain of recombinant human UAE (P22314 whole entry): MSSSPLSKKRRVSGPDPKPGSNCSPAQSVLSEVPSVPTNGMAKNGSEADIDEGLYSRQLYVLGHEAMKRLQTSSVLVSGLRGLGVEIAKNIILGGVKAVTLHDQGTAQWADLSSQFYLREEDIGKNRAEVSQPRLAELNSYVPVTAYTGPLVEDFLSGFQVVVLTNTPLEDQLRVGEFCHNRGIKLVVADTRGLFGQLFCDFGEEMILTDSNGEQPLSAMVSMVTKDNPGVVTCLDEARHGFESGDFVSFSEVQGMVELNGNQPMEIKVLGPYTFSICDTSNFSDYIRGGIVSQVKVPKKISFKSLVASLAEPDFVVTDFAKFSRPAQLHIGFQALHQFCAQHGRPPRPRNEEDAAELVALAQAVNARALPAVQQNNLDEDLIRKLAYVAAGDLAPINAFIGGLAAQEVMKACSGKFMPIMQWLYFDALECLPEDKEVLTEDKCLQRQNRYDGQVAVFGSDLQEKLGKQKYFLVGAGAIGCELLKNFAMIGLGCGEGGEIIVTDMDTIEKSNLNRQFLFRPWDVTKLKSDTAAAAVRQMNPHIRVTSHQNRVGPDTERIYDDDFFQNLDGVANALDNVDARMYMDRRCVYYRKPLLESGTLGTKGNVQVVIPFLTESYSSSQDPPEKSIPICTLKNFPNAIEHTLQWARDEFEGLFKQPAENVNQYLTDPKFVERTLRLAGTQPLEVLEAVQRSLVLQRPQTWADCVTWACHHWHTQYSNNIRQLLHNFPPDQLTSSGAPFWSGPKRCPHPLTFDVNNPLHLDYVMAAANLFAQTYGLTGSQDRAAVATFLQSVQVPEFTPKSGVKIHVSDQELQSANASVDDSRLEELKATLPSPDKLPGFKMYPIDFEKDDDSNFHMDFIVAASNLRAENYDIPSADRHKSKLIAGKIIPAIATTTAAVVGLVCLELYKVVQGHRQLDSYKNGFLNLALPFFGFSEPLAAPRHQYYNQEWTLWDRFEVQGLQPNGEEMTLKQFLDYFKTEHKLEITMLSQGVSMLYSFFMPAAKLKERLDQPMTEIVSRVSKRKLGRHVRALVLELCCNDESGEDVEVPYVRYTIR
Experimental: After incubation for 120 minutes, quantification of the FRET is performed on the Pherostar (BMG).
For compounds whose values are marked with an asterisk (*), mouse UAE was used. For all other compounds, human UAE was used.

| SMILES | inhibition at 0.111 µM [%] |
| --- | --- |
| COC(=O)c1ccc2c(-c3cc4nccc(N[C@@H]5C[C@H](COS(N)(=O)=O)[C@@H](O)[C@H]5O)n4n3)cccc2c1 (relative stereo) [Compound I-096, (rac)-methyl rel-5-[7-({(1R,2S,3R,4R)-2,3-dihydroxy-4-[(sulfamoyloxy)methyl]cyclopentyl}amino)pyrazolo[1,5-a]pyrimidin-2-yl]-2-naphthoate] | 100 |
| NS(=O)(=O)OC[C@H]1C[C@@H](Nc2ccnc3cc(-c4cccc(C(F)(F)F)n4)nn23)[C@H](O)[C@@H]1O (relative stereo) [Compound I-064, (rac)-((1R,2R,3S,4R)-2,3-dihydroxy-4-(2-(6-(trifluoromethyl)pyridin-2-yl)pyrazolo[1,5-a]pyrimidin-7-ylamino)cyclopentyl)methyl rel-sulfamate] | 96 |
| COc1ccc(Cl)cc1-c1cc2nccc(N[C@@H]3C[C@H](COS(N)(=O)=O)[C@@H](O)[C@H]3O)n2n1 (relative stereo) [Compound I-020, (rac)-((1R,2R,3S,4R)-4-(2-(5-chloro-2-methoxyphenyl)pyrazolo[1,5-a]pyrimidin-7-ylamino)-2,3-dihydroxycyclopentyl)methyl rel-sulfamate] | 100 |
| NS(=O)(=O)OC[C@H]1C[C@@H](Nc2ccnc3cc(-c4cccc5c4oc4ccccc45)nn23)[C@H](O)[C@@H]1O (relative stereo) [Compound I-010, (rac)-((1R,2R,3S,4R)-4-(2-(dibenzo[b,d]furan-4-yl)pyrazolo[1,5-a]pyrimidin-7-ylamino)-2,3-dihydroxycyclopentyl)methyl rel-sulfamate] | 100 |
| NS(=O)(=O)OC[C@H]1C[C@@H](Nc2ccnc3cc(-c4csc5ccc(Cl)cc45)nn23)[C@H](O)[C@@H]1O (relative stereo) [Compound I-071, (rac)-((1R,2R,3S,4R)-4-(2-(5-chlorobenzo[b]thiophen-3-yl)pyrazolo[1,5-a]pyrimidin-7-ylamino)-2,3-dihydroxycyclopentyl)methyl rel-sulfamate] | 100 |
| NS(=O)(=O)OC[C@H]1C[C@@H](Nc2ccnc3cc(-c4ccc5oc6ccccc6c5c4)nn23)[C@H](O)[C@@H]1O (relative stereo) [Compound I-019, (rac)-((1R,2R,3S,4R)-4-(2-(dibenzo[b,d]furan-2-yl)pyrazolo[1,5-a]pyrimidin-7-ylamino)-2,3-dihydroxycyclopentyl)methyl rel-sulfamate] | 100 |
| NS(=O)(=O)OC[C@H]1C[C@@H](Nc2ccnc3cc(-c4ccccc4Oc4ccccc4)nn23)[C@H](O)[C@@H]1O (relative stereo) [Compound I-068, (rac)-((1R,2R,3S,4R)-2,3-dihydroxy-4-(2-(2-phenoxyphenyl)pyrazolo[1,5-a]pyrimidin-7-ylamino)cyclopentyl)methyl rel-sulfamate] | 95 |
| NS(=O)(=O)OC[C@H]1C[C@@H](Nc2ccnc3cc(-c4cccc(N5CCOCC5)c4)nn23)[C@H](O)[C@@H]1O (relative stereo) [Compound I-078, (rac)-((1R,2R,3S,4R)-2,3-dihydroxy-4-(2-(3-morpholinophenyl)pyrazolo[1,5-a]pyrimidin-7-ylamino)cyclopentyl)methyl rel-sulfamate] | 100 |
| Cn1cc(-c2cccc(-c3cc4nccc(N[C@@H]5C[C@H](COS(N)(=O)=O)[C@@H](O)[C@H]5O)n4n3)c2)cn1 (relative stereo) [Compound I-122, (rac)-[(1R,2R,3S,4R)-2,3-dihydroxy-4-({2-[3-(1-methyl-1H-pyrazol-4-yl)phenyl]pyrazolo[1,5-a]pyrimidin-7-yl}amino)cyclopentyl]methyl rel-sulfamate] | 97 |
| NS(=O)(=O)OC[C@H]1C[C@@H](Nc2ccnc3cc(-c4cccc5ccsc45)nn23)[C@H](O)[C@@H]1O (relative stereo) [Compound I-045, (rac)-((1R,2R,3S,4R)-4-((2-(Benzo[b]thiophen-7-yl)pyrazolo[1,5-a]pyrimidin-7-yl)amino)-2,3-dihydroxycyclopentyl)methyl rel-sulfamate] | 100 |
| NS(=O)(=O)OC[C@H]1C[C@@H](Nc2ccnc3cc(-c4cc(Cl)ccc4OC(F)(F)F)nn23)[C@H](O)[C@@H]1O (relative stereo) [Compound I-057, (rac)-((1R,2R,3S,4R)-4-(2-(5-chloro-2-(trifluoromethoxy)phenyl)pyrazolo[1,5-a]pyrimidin-7-ylamino)-2,3-dihydroxycyclopentyl)methyl rel-sulfamate] | 100 |
| CC(C)(C)c1cccc(-c2cc3nccc(N[C@@H]4C[C@H](COS(N)(=O)=O)[C@@H](O)[C@H]4O)n3n2)n1 (relative stereo) [Compound I-052, (rac)-((1R,2R,3S,4R)-4-(2-(6-tert-butylpyridin-2-yl)pyrazolo[1,5-a]pyrimidin-7-ylamino)-2,3-dihydroxycyclopentyl)methyl rel-sulfamate] | 100 |
| CC1(C)CCc2ccc(-c3cc4nccc(N[C@@H]5C[C@H](COS(N)(=O)=O)[C@@H](O)[C@H]5O)n4n3)cc21 (relative stereo) [Compound I-041, (rac)-((1R,2R,3S,4R)-4-(2-(3,3-dimethyl-2,3-dihydro-1H-inden-5-yl)pyrazolo[1,5-a]pyrimidin-7-ylamino)-2,3-dihydroxycyclopentyl)methyl rel-sulfamate] | 99 |
| NS(=O)(=O)OC[C@H]1C[C@@H](Nc2ccnc3cc(-c4cccc(N5CCCC5)c4)nn23)[C@H](O)[C@@H]1O (relative stereo) [Compound I-046, (rac)-((1R,2R,3S,4R)-2,3-dihydroxy-4-(2-(3-(pyrrolidin-1-yl)phenyl)pyrazolo[1,5-a]pyrimidin-7-ylamino)cyclopentyl)methyl rel-sulfamate] | 100 |
| NS(=O)(=O)OC[C@H]1C[C@@H](Nc2ccnc3cc(-c4ccnc5cc(Cl)ccc45)nn23)[C@H](O)[C@@H]1O (relative stereo) [Compound I-039, (rac)-((1R,2R,3S,4R)-4-(2-(7-chloroquinolin-4-yl)pyrazolo[1,5-a]pyrimidin-7-ylamino)-2,3-dihydroxycyclopentyl)methyl rel-sulfamate] | 100 |
| NS(=O)(=O)OC[C@H]1C[C@@H](Nc2ccnc3cc(-c4cccc(N5CCCC5=O)c4)nn23)[C@H](O)[C@@H]1O (relative stereo) [Compound I-087, (rac)-((1R,2R,3S,4R)-2,3-dihydroxy-4-(2-(3-(2-oxopyrrolidin-1-yl)phenyl)pyrazolo[1,5-a]pyrimidin-7-ylamino)cyclopentyl)methyl rel-sulfamate] | 100 |

Other lines, results leading:

| inhibition at 0.111 µM [%] | SMILES |
| --- | --- |
| 42 | NS(=O)(=O)OC[C@H]1C[C@@H](Nc2cc(Cl)nc3cc(-c4cccc5ccccc45)nn23)[C@H](O)[C@@H]1O (relative stereo) [Compound I-009, (rac)-((1R,2R,3S,4R)-4-{[5-chloro-2-(1-naphthyl)pyrazolo[1,5-a]pyrimidin-7-yl]amino}-2,3-dihydroxycyclopentyl)methyl rel-sulfamate] |
| 100 | NS(=O)(=O)OC[C@H]1C[C@@H](Nc2ccnc3cc(-c4cnc(-c5ccccc5)o4)nn23)[C@H](O)[C@@H]1O (relative stereo) [Compound I-067, (rac)-[(1R,2R,3S,4R)-2,3-dihydroxy-4-{[2-(2-phenyl-1,3-oxazol-5-yl)pyrazolo[1,5-a]pyrimidin-7-yl]amino}cyclopentyl]methyl rel-sulfamate] |
| 23 | NS(=O)(=O)OC[C@H]1C[C@@H](Nc2cc(Cl)nc3cc(-c4ccccc4)nn23)[C@H](O)[C@@H]1O (relative stereo) [Compound I-006, (rac)-{(1R,2R,3S,4R)-4-[(5-chloro-2-phenylpyrazolo[1,5-a]pyrimidin-7-yl)amino]-2,3-dihydroxycyclopentyl}methyl rel-sulfamate] |
| 100 | NS(=O)(=O)OC[C@H]1C[C@@H](Nc2ccnc3cc(-c4c[nH]c5ccccc45)nn23)[C@H](O)[C@@H]1O (relative stereo) [Compound I-032, (rac)-[(1R,2R,3S,4R)-2,3-dihydroxy-4-{[2-(1H-indol-3-yl)pyrazolo[1,5-a]pyrimidin-7-yl]amino}cyclopentyl]methyl rel-sulfamate] |
| 98 | NS(=O)(=O)OC[C@H]1C[C@@H](Nc2ccnc3cc(-c4ccc5[nH]ccc5c4)nn23)[C@H](O)[C@@H]1O (relative stereo) [Compound I-074, (rac)-[(1R,2R,3S,4R)-2,3-dihydroxy-4-{[2-(1H-indol-5-yl)pyrazolo[1,5-a]pyrimidin-7-yl]amino}cyclopentyl]methyl rel-sulfamate] |
| 99 | NS(=O)(=O)OC[C@H]1C[C@@H](Nc2ccnc3cc(-c4cccc(SC(F)(F)F)c4)nn23)[C@H](O)[C@@H]1O [Compound I-101, (s.e.)-((1R,2R,3S,4R)-2,3-dihydroxy-4-(2-(3-(trifluoromethylthio)phenyl)pyrazolo[1,5-a]pyrimidin-7-ylamino)cyclopentyl)methyl sulfamate] |
| 100 | NS(=O)(=O)OC[C@H]1C[C@@H](Nc2ccnc3cc(-c4cncc(-c5ccccc5)n4)nn23)[C@H](O)[C@@H]1O (relative stereo) [Compound I-121, (rac)-((1R,2R,3S,4R)-2,3-dihydroxy-4-{[2-(6-phenylpyrazin-2-yl)pyrazolo[1,5-a]pyrimidin-7-yl]aminolcyclopentyl)methylrel-sulfamate] |
| 99 | NS(=O)(=O)OC[C@H]1C[C@@H](Nc2ccnc3cc(-c4cc5ccccc5o4)nn23)[C@H](O)[C@@H]1O (relative stereo) [Compound I-086, (rac)-((1R,2R,3S,4R)-4-(2-(benzofuran-2-yl)pyrazolo[1,5-a]pyrimidin-7-ylamino)-2,3-dihydroxycyclopentyl)methyl rel-sulfamate] |
| 100 | NS(=O)(=O)OC[C@H]1C[C@@H](Nc2ccnc3cc(-c4ccc5ncccc5c4)nn23)[C@H](O)[C@@H]1O (relative stereo) [Compound I-034, (rac)-((1R,2R,3S,4R)-2,3-dihydroxy-4-(2-(quinolin-6-yl)pyrazolo[1,5-a]pyrimidin-7-ylamino)cyclopentyl)methyl rel-sulfamate] |
